Experimental data as given in PubChem BioAssay (NCI).
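How tested: cells in 96-well plates exposed to compound for 48 hours at five concentrations. At the TGI there is no net growth.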

Legend:
Experiment in all cases: NCI tumour cell line growth inhibition, 48 h
SN12C renal = system: SN12C renal
SNB-19 CNS = system: SNB-19 CNS
ACHN renal = system: ACHN renal
EKVX NSCLC = system: EKVX NSCLC
HT29 colon = system: HT29 colon
HOP-92 NSCLC = system: HOP-92 NSCLC
NCI-H522 lung = system: NCI-H522 lung
NCI-H23 lung = system: NCI-H23 lung
SK-OV-3 ovarian = system: SK-OV-3 ovarian
IGROV1 ovarian = system: IGROV1 ovarian
OVCAR-5 ovarian = system: OVCAR-5 ovarian
SNB-75 CNS = system: SNB-75 CNS
MALME-3M melanoma = system: MALME-3M melanoma
CCRF-CEM leukemia = system: CCRF-CEM leukemia
NCI-H226 lung = system: NCI-H226 lung
SK-MEL-28 melanoma = system: SK-MEL-28 melanoma
HL-60(TB) leukemia = system: HL-60(TB) leukemia
A498 renal = system: A498 renal
786-0 renal = system: 786-0 renal
RPMI-8226 leukemia = system: RPMI-8226 leukemia
TK-10 renal = system: TK-10 renal
A549 NSCLC = system: A549 NSCLC
MOLT-4 leukemia = system: MOLT-4 leukemia
K-562 leukemia = system: K-562 leukemia
SF-268 CNS = system: SF-268 CNS
UACC-62 melanoma = system: UACC-62 melanoma
NCI-H460 lung = system: NCI-H460 lung
MDA-MB-435 = system: MDA-MB-435
T-47D breast = system: T-47D breast
UACC-257 melanoma = system: UACC-257 melanoma
SK-MEL-5 melanoma = system: SK-MEL-5 melanoma
MDA-N = system: MDA-N
OVCAR-4 ovarian = system: OVCAR-4 ovarian
COLO 205 colon = system: COLO 205 colon
U251 CNS = system: U251 CNS
RXF 393 renal = system: RXF 393 renal
MDA-MB-231 breast = system: MDA-MB-231 breast
NCI/ADR-RES ovarian = system: NCI/ADR-RES ovarian
KM12 colon = system: KM12 colon
BT-549 breast = system: BT-549 breast
HOP-62 NSCLC = system: HOP-62 NSCLC
OVCAR-3 ovarian = system: OVCAR-3 ovarian
SF-539 CNS = system: SF-539 CNS
MCF7 breast = system: MCF7 breast
HS 578T breast = system: HS 578T breast
DU-145 prostate = system: DU-145 prostate
SK-MEL-2 melanoma = system: SK-MEL-2 melanoma
LOX IMVI melanoma = system: LOX IMVI melanoma
SF-295 CNS = system: SF-295 CNS
HCT-116 colon = system: HCT-116 colon
UO-31 renal = system: UO-31 renal
HCC-2998 colon = system: HCC-2998 colon
PC-3 prostate = system: PC-3 prostate
M14 melanoma = system: M14 melanoma
HCT-15 colon = system: HCT-15 colon
OVCAR-8 ovarian = system: OVCAR-8 ovarian
CAKI-1 renal = system: CAKI-1 renal
SW-620 colon = system: SW-620 colon

For `O=C1SC(c2ccc(Cl)cc2)(c2ccc(Cl)cc2)c2ccccc21`, the TGI (SN12C renal) was over 100 µM, the TGI (SNB-19 CNS) was over 100 µM and the TGI (ACHN renal) was over 100 µM. The TGI (EKVX NSCLC) was over 100 µM, the TGI (HT29 colon) was over 100 µM and the TGI (HOP-92 NSCLC) was over 100 µM. It also gave a TGI (NCI-H522 lung) of over 100 µM, a TGI (NCI-H23 lung) of over 100 µM and a TGI (SK-OV-3 ovarian) of over 100 µM. For the same molecule, the TGI (IGROV1 ovarian) was over 100 µM, the TGI (OVCAR-5 ovarian) was over 100 µM and the TGI (SNB-75 CNS) was over 100 µM. For the same molecule, the TGI (MALME-3M melanoma) was over 100 µM, the TGI (CCRF-CEM leukemia) was over 100 µM and the TGI (NCI-H226 lung) was over 100 µM. The TGI (SK-MEL-28 melanoma) was over 100 µM, the TGI (HL-60(TB) leukemia) was 96.6 µM and the TGI (A498 renal) was over 100 µM. It also gave a TGI (786-0 renal) of over 100 µM, a TGI (RPMI-8226 leukemia) of over 100 µM and a TGI (TK-10 renal) of over 100 µM. It also gave a TGI (A549 NSCLC) of over 100 µM, a TGI (MOLT-4 leukemia) of over 100 µM and a TGI (K-562 leukemia) of over 100 µM. It also gave a TGI (SF-268 CNS) of over 100 µM, a TGI (UACC-62 melanoma) of over 100 µM and a TGI (NCI-H460 lung) of over 100 µM. It also gave a TGI (MDA-MB-435) of over 100 µM, a TGI (T-47D breast) of over 100 µM and a TGI (UACC-257 melanoma) of over 100 µM. For the same molecule, the TGI (SK-MEL-5 melanoma) was over 100 µM, the TGI (MDA-N) was over 100 µM and the TGI (OVCAR-4 ovarian) was over 100 µM. It also gave a TGI (COLO 205 colon) of over 100 µM, a TGI (U251 CNS) of over 100 µM and a TGI (RXF 393 renal) of over 100 µM. For the same molecule, the TGI (MDA-MB-231 breast) was over 100 µM, the TGI (NCI/ADR-RES ovarian) was over 100 µM and the TGI (KM12 colon) was over 100 µM. It also gave a TGI (BT-549 breast) of over 100 µM, a TGI (HOP-62 NSCLC) of over 100 µM and a TGI (OVCAR-3 ovarian) of over 100 µM. The TGI (SF-539 CNS) was over 100 µM, the TGI (MCF7 breast) was over 100 µM and the TGI (HS 578T breast) was over 100 µM. The TGI (DU-145 prostate) was over 100 µM, the TGI (SK-MEL-2 melanoma) was 77.5 µM and the TGI (LOX IMVI melanoma) was over 100 µM. For the same molecule, the TGI (SF-295 CNS) was over 100 µM, the TGI (HCT-116 colon) was 55.3 µM and the TGI (UO-31 renal) was over 100 µM. The TGI (HCC-2998 colon) was over 100 µM, the TGI (PC-3 prostate) was over 100 µM and the TGI (M14 melanoma) was over 100 µM. The TGI (HCT-15 colon) was over 100 µM, the TGI (OVCAR-8 ovarian) was over 100 µM and the TGI (CAKI-1 renal) was over 100 µM. For the same molecule, the TGI (SW-620 colon) was over 100 µM.

`NCS(=O)(=O)O` gave a TGI (SN12C renal) of over 100 µM, a TGI (SNB-19 CNS) of over 100 µM and a TGI (ACHN renal) of over 100 µM. For the same molecule, the TGI (EKVX NSCLC) was over 100 µM, the TGI (HT29 colon) was over 100 µM and the TGI (HOP-92 NSCLC) was over 100 µM. For the same molecule, the TGI (NCI-H522 lung) was over 100 µM, the TGI (NCI-H23 lung) was over 100 µM and the TGI (SK-OV-3 ovarian) was over 100 µM. The TGI (IGROV1 ovarian) was over 100 µM, the TGI (OVCAR-5 ovarian) was over 100 µM and the TGI (SNB-75 CNS) was over 100 µM. It also gave a TGI (MALME-3M melanoma) of over 100 µM, a TGI (CCRF-CEM leukemia) of over 100 µM and a TGI (NCI-H226 lung) of over 100 µM. The TGI (SK-MEL-28 melanoma) was over 100 µM, the TGI (HL-60(TB) leukemia) was over 100 µM and the TGI (A498 renal) was over 100 µM. For the same molecule, the TGI (786-0 renal) was over 100 µM, the TGI (RPMI-8226 leukemia) was over 100 µM and the TGI (TK-10 renal) was over 100 µM. It also gave a TGI (A549 NSCLC) of over 100 µM, a TGI (MOLT-4 leukemia) of over 100 µM and a TGI (K-562 leukemia) of over 100 µM. It also gave a TGI (SF-268 CNS) of over 100 µM, a TGI (UACC-62 melanoma) of over 100 µM and a TGI (NCI-H460 lung) of over 100 µM. The TGI (MDA-MB-435) was over 100 µM, the TGI (T-47D breast) was over 100 µM and the TGI (UACC-257 melanoma) was over 100 µM. For the same molecule, the TGI (SK-MEL-5 melanoma) was over 100 µM, the TGI (MDA-N) was over 100 µM and the TGI (OVCAR-4 ovarian) was over 100 µM. For the same molecule, the TGI (COLO 205 colon) was over 100 µM, the TGI (U251 CNS) was over 100 µM and the TGI (RXF 393 renal) was over 100 µM. For the same molecule, the TGI (MDA-MB-231 breast) was over 100 µM, the TGI (NCI/ADR-RES ovarian) was over 100 µM and the TGI (KM12 colon) was over 100 µM. The TGI (BT-549 breast) was over 100 µM, the TGI (HOP-62 NSCLC) was over 100 µM and the TGI (OVCAR-3 ovarian) was over 100 µM. It also gave a TGI (SF-539 CNS) of 52.6 µM, a TGI (MCF7 breast) of over 100 µM and a TGI (HS 578T breast) of over 100 µM. It also gave a TGI (DU-145 prostate) of over 100 µM, a TGI (SK-MEL-2 melanoma) of over 100 µM and a TGI (LOX IMVI melanoma) of over 100 µM. The TGI (SF-295 CNS) was over 100 µM, the TGI (HCT-116 colon) was over 100 µM and the TGI (UO-31 renal) was over 100 µM. For the same molecule, the TGI (HCC-2998 colon) was over 100 µM, the TGI (PC-3 prostate) was over 100 µM and the TGI (M14 melanoma) was over 100 µM. The TGI (HCT-15 colon) was over 100 µM, the TGI (OVCAR-8 ovarian) was over 100 µM and the TGI (CAKI-1 renal) was over 100 µM. For the same molecule, the TGI (SW-620 colon) was over 100 µM.
